The results in this text go back to patent US7133717B2, “Tissue electroperforation for enhanced drug delivery and diagnostic sampling” (Johnson & Johnson Consumer Companies, Inc., priority 1999, dated 2006).

Holding throughout (type): in vivo
Holding throughout (settings): two pigs

The nature of data set [1]: Electroperforation (25 pores/cm^2) followed by passive diffusion of erythropoietin for transdermal delivery, plasma erythropoietin by ELISA. As to the method:
(§1) To evaluate the pore transport pathway created through the stratum corneum of the skin by electroperforation, an in vivo experiment was conducted on the back skin of Yorkshire pigs (female, ˜12 kg) using an electrosurgery apparatus (Surgitron™, Ellman International, Inc., Hewlett, N.Y.). The pigs were immobilized with appropriate anesthetics and analgesics. Electrofulguration current was used with a fine wire electrode (0.26 mm in diameter) and power output setting at between scale 3 to 10. A small pore was created on the surface of the skin by carefully moving the electrode towards the skin until the tip of the electrode almost touched the skin. The electrode was quickly moved away from the skin as soon as an electric arc appeared in the gap between the electrode tip and the skin surface.
An electroperforation procedure was conducted in two pigs similar to that in Example 3, followed by passive diffusion of erythropoietin (20 kU/ml, Procrit®, Ortho Biotech, Inc., Raritan, N.J.) at the treatment site. There were 25 pores/cm^2 generated with electroperforation on each pig. The drug chamber based over the electroperforation-treated skin area contained 0.5 ml of erythropoietin solution. Blood samples were collected for erythropoietin analysis with an ELISA method. The erythropoietin delivery procedure was carried out for 7 hours. […]
For orientation: ELISA stands for enzyme-linked immunosorbent assay.

Data set [2] deals with pigs. Put plainly: Electroperforation (39 pores/cm^2) followed by passive diffusion of insulin for transdermal delivery, blood glucose monitoring. Here is the method:
as §1
The electroperforation procedure described in Example 1 was conducted in two pigs with a pore density of 39 pores/cm^2 of the skin and subsequently followed by transdermal insulin delivery with passive diffusion. An insulin-containing chamber was immediately placed onto the electroperforation-treated skin. […] Blood glucose of the pigs was monitored by obtaining blood samples of the ear vein, which were analyzed using two blood glucose analyzers separately to assure the accuracy (One Touch® Basic, LifeScan, Inc., Milpitas, Calif.).

Data set [3] deals with pigs. The data set is described as follows: Electroperforation (9 pores/cm^2) followed by passive diffusion and iontophoresis of insulin for transdermal delivery, blood glucose monitoring. As to the method: as §1
An electroperforation procedure was conducted in two pigs similar with a pore density of 9 pores/cm^2 on the skin and subsequently was followed by transdermal insulin delivery. The purpose of using a lower pore density in this experiment was to examine the effect of pore number (e.g., the extent of the transport pathway available) to transdermal insulin delivery. The same insulin-containing chamber and drug application procedures were used in this experiment as those in the Example 2. […]

Consider erythropoietin, for which, in data set [1] (one day after the delivery experiment), the plasma erythropoietin concentrations result is listed as “still above the endogenous basal level”. Besides, the plasma erythropoietin concentration result in data set [1] (passive diffusion, 0.5 ml of 20 kU/ml solution, during the 7 hour delivery until chambers removed) was “progressive increase”.

As for insulin, the blood glucose reduction entry was “greater than 50 % of the basal level” in the data set on pigs [2] (0.5 ml insulin solution 100 U/ml, contact area 2.3 cm^2); “rapid blood glucose reduction” in the data set with pigs [3] (during iontophoresis, 4 mA DC, two 30-minute sections at 1.5 hour and 3 hour). Also, the blood glucose levels entry in the data set on pigs [2] (from the onset of insulin delivery) was “declined rather quickly”; in the data set on pigs [3] (first 1.5 hours, passive diffusion only), “did not decline”.
